# US8952024B2, “Herbicidal pyrimidone derivatives” (E I du Pont de Nemours and Company, priority 2009, dated 2015)
# Key:
# Assay type in all cases: in vivo
# [1] = test system: chickweed (Stellaria media); test: Test B postemergence plant response
# Method in brief: (§1)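 Plants at the 1- to 4-leaf stage (2 to 18 cm tall), grown in pots of peat moss/vermiculite medium with wetting agent and starter nutrients, received postemergence applications of test chemicals. After 13 to 15 days in a greenhouse, injury was rated visually against untreated controls on a 0 (no effect) to 100 (complete control) scale.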
# [2] = test system: canarygrass (Phalaris minor); test: Test B postemergence plant response
# Method in brief: as §1
# [3] = test system: windgrass (Apera spica-venti); test: Test B postemergence plant response
# Method in brief: as §1
# corn (Zea mays) = test: Test A pre-/postemergence plant response
# Method in brief: (§2)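 Pre: directed soil spray on seeded loam/sand blend. Post: same formulation (non-phytotoxic solvent + surfactant) on 2–10 cm plants, 1–2 leaf stage. Greenhouse ~10 d; visual injury score 0–100 vs untreated.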
# [4] = test system: pigweed (Amaranthus retroflexus); test: Test A pre-/postemergence plant response
# Method in brief: as §2
# [5] = test system: barnyardgrass (Echinochloa crus-galli); test: Test A pre-/postemergence plant response
# Method in brief: as §2
# [6] = test system: giant foxtail (Setaria faberii); test: Test A pre-/postemergence plant response
# Method in brief: as §2
# [7] = test system: large crabgrass (Digitaria sanguinalis); test: Test A pre-/postemergence plant response
# Method in brief: as §2
# [8] = test system: morningglory (Ipomoea spp.); test: Test A pre-/postemergence plant response
# Method in brief: as §2
# [9] = test system: velvetleaf (Abutilon theophrasti); test: Test A pre-/postemergence plant response
# Method in brief: as §2
# [10] = test system: wheat (Triticum aestivum); test: Test A pre-/postemergence plant response
# Method in brief: as §2
# rice (Oryza sativa) = test: Test B flooded paddy test; conditions: for Plant response rating, Flood, Rice: 250 g ai/ha, flooded paddy test, visual rating on 0 to 100 scale (0 no effect, 100 complete control) after 13 to 15 days; for Plant response rating, Rice: Flood (flooded paddy test), 13 to 15 days
# Method in brief: (§3)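 Seedlings reaching 2 leaves are flooded 3 cm deep; test material is delivered to that water, which stays at the same depth. Plants remain in a greenhouse 13–15 days and are then scored by eye versus controls from 0 to 100.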
# [11] = test system: ducksalad (Heteranthera limosa); test: Test B flooded paddy test; conditions: for Plant response rating, Flood, Ducksalad: 250 g ai/ha, flooded paddy test, visual rating on 0 to 100 scale (0 no effect, 100 complete control) after 13 to 15 days; for Plant response rating, Ducksalad: Flood (flooded paddy test), 13 to 15 days
# Method in brief: as §3
# [12] = Postemergence, 31 g ai/ha, 0 to 100 scale (0 no effect, 100 complete control)
# [13] = Postemergence, 62 g ai/ha, scale 0 to 100 (0 no effect, 100 complete control)
# [14] = Postemergence, 125 g ai/ha, scale 0 (no effect) to 100 (complete control), 13 to 15 days
# [15] = Postemergence, 250 g ai/ha, scale 0 to 100 (0 no effect, 100 complete control), 13 to 15 days
# [16] = Postemergence, 125 g ai/ha, 0 to 100 scale where 0 is no effect and 100 is complete control
# [17] = Postemergence, 500 g ai/ha, visual injury, 0 to 100 scale (0 no effect, 100 complete control), approx. ten days
# [18] = Preemergence, 125 g ai/ha, 0 to 100 scale, 0 = no effect, 100 = complete control
# [19] = Preemergence, 500 g ai/ha, 0 to 100 scale, 0 = no effect, 100 = complete control
# [20] = 62 g ai/ha, scale of 0 to 100 where 0 is no effect and 100 is complete control
# [21] = 125 g ai/ha, scale 0 to 100, 0 is no effect, 100 is complete control
# [22] = Flood, 31 g ai/ha, scale 0 to 100 (0 no effect, 100 complete control)
# [23] = 31 g ai/ha, postemergence, scale 0 to 100, 0 is no effect, 100 is complete control
# [24] = 62 g ai/ha, postemergence, 0 is no effect, 100 is complete control, 13 to 15 days
# [25] = Postemergence, 125 g ai/ha, visual rating after 13 to 15 days, scale 0 (no effect) to 100 (complete control)
# [26] = Postemergence, 250 g ai/ha, scale 0 to 100 (0 no effect, 100 complete control)
# [27] = Postemergence, 500 g ai/ha, 0 to 100 scale, 0 = no effect, 100 = complete control, approx. ten days
# [28] = Preemergence, 500 g ai/ha, visual injury, 0 to 100 scale (0 no effect, 100 complete control), approx. ten days
compound,measurement,setting,value
CCCCn1c(-c2cccc(F)c2)ncc(C(=O)C2=C(O)C3CCC(C3)C2=O)c1=O (stereo not shown) [Compound 237],"Plant response rating, Chickweed",[1]; [12],90
same,"Plant response rating, Chickweed",[1]; [13],98
same,"Plant response rating, Chickweed",[1]; [14],100
same,"Plant response rating, Chickweed",[1]; [15],100
same,"Plant response rating, Canarygrass",[2]; [12],30
same,"Plant response rating, Canarygrass",[2]; [13],40
same,"Plant response rating, Canarygrass",[2]; [14],50
same,"Plant response rating, Canarygrass",[2]; [15],50
same,"Plant response rating, Windgrass",[3]; [12],60
same,"Plant response rating, Windgrass",[3]; [13],90
same,"Plant response rating, Windgrass",[3]; [14],98
same,"Plant response rating, Windgrass",[3]; [15],100
same,"Plant response rating, Corn",corn (Zea mays); [16],40
same,Corn plant response rating,corn (Zea mays); [17],80
same,"Plant response rating, Corn",corn (Zea mays); [18],0
same,"Plant response rating, Corn",corn (Zea mays); [19],50
same,"Plant response rating, Pigweed",[4]; [16],90
same,Pigweed plant response rating,[4]; [17],100
same,"Plant response rating, Pigweed",[4]; [18],30
same,"Plant response rating, Pigweed",[4]; [19],100
same,"Plant response rating, Barnyardgrass",[5]; [16],100
same,Barnyardgrass plant response rating,[5]; [17],100
same,"Plant response rating, Barnyardgrass",[5]; [18],20
same,"Plant response rating, Barnyardgrass",[5]; [19],90
same,"Plant response rating, Foxtail, Giant",[6]; [16],90
same,"Foxtail, Giant plant response rating",[6]; [17],100
same,"Plant response rating, Foxtail, Giant",[6]; [18],40
same,"Plant response rating, Foxtail, Giant",[6]; [19],90
same,"Plant response rating, Crabgrass, Large",[7]; [16],80
same,"Crabgrass, Large plant response rating",[7]; [17],100
same,"Plant response rating, Crabgrass, Large",[7]; [18],40
same,"Plant response rating, Crabgrass, Large",[7]; [19],100
same,"Plant response rating, Morningglory",[8]; [16],100
same,Morningglory plant response rating,[8]; [17],100
same,"Plant response rating, Morningglory",[8]; [18],10
same,"Plant response rating, Morningglory",[8]; [19],80
same,"Plant response rating, Velvetleaf",[9]; [16],100
same,Velvetleaf plant response rating,[9]; [17],100
same,"Plant response rating, Velvetleaf",[9]; [18],80
same,"Plant response rating, Velvetleaf",[9]; [19],100
same,"Plant response rating, Wheat",[10]; [16],20
same,Wheat plant response rating,[10]; [17],70
same,"Plant response rating, Wheat",[10]; [18],0
same,"Plant response rating, Wheat",[10]; [19],30
same,"Plant response rating, Flood, Rice",rice (Oryza sativa),45
same,"Plant response rating, Rice",rice (Oryza sativa); [20],0
same,"Plant response rating, Rice",rice (Oryza sativa); [21],0
same,Rice plant response rating,rice (Oryza sativa); [22],0
same,"Plant response rating, Flood, Ducksalad",[11],100
same,"Plant response rating, Ducksalad",[11]; [20],65
same,"Plant response rating, Ducksalad",[11]; [21],90
same,Ducksalad plant response rating,[11]; [22],0
CCCc1ncc(C(=O)C2=C(O)CCCC2=O)c(=O)n1-c1ccccc1C [Compound 73],"Plant response rating, Chickweed",[1]; [23],80
same,Chickweed plant response rating (0 to 100 scale),[1]; [24],80
same,"Plant response rating, Chickweed",[1]; [25],95
same,"Plant response rating, Chickweed",[1]; [26],100
same,"Plant response rating, Canarygrass",[2]; [23],0
same,Canarygrass plant response rating (0 to 100 scale),[2]; [24],0
same,"Plant response rating, Canarygrass",[2]; [25],5
same,"Plant response rating, Canarygrass",[2]; [26],40
same,"Plant response rating, Windgrass",[3]; [23],70
same,Windgrass plant response rating (0 to 100 scale),[3]; [24],80
same,"Plant response rating, Windgrass",[3]; [25],90
same,"Plant response rating, Windgrass",[3]; [26],98
same,"Plant response rating, Corn",corn (Zea mays); [16],30
same,"Plant response rating, Corn",corn (Zea mays); [27],60
same,"Plant response rating, Corn",corn (Zea mays); [18],0
same,"Plant response rating, Corn",corn (Zea mays); [28],0
same,"Plant response rating, Pigweed",[4]; [16],100
same,"Plant response rating, Pigweed",[4]; [27],100
same,"Plant response rating, Pigweed",[4]; [18],100
same,"Plant response rating, Pigweed",[4]; [28],100
same,"Plant response rating, Barnyardgrass",[5]; [16],70
same,"Plant response rating, Barnyardgrass",[5]; [27],90
same,"Plant response rating, Barnyardgrass",[5]; [18],0
same,"Plant response rating, Barnyardgrass",[5]; [28],70
same,"Plant response rating, Foxtail, Giant",[6]; [16],80
same,"Plant response rating, Foxtail, Giant",[6]; [27],90
same,"Plant response rating, Foxtail, Giant",[6]; [18],50
same,"Plant response rating, Foxtail, Giant",[6]; [28],70
same,"Plant response rating, Crabgrass, Large",[7]; [16],90
same,"Plant response rating, Crabgrass, Large",[7]; [27],90
same,"Plant response rating, Crabgrass, Large",[7]; [18],70
same,"Plant response rating, Crabgrass, Large",[7]; [28],100
same,"Plant response rating, Morningglory",[8]; [16],100
same,"Plant response rating, Morningglory",[8]; [27],100
same,"Plant response rating, Morningglory",[8]; [18],10
same,"Plant response rating, Morningglory",[8]; [28],80
same,"Plant response rating, Velvetleaf",[9]; [16],100
same,"Plant response rating, Velvetleaf",[9]; [27],100
same,"Plant response rating, Velvetleaf",[9]; [18],80
same,"Plant response rating, Velvetleaf",[9]; [28],100
same,"Plant response rating, Wheat",[10]; [16],10
same,"Plant response rating, Wheat",[10]; [27],50
same,"Plant response rating, Wheat",[10]; [18],10
same,"Plant response rating, Wheat",[10]; [28],30
same,"Plant response rating, Flood, Rice",rice (Oryza sativa),0
same,"Plant response rating, Rice",rice (Oryza sativa); [20],0
same,"Plant response rating, Flood, Ducksalad",[11],0
same,"Plant response rating, Ducksalad",[11]; [20],0
